Here are results for six compounds from US7951549B2, “Methods for the identification of agents that inhibit mesenchymal-like tumor cells or their formation” (OSI Pharmaceuticals, Inc., priority 2008, dated 2011).

Entries after “also recorded” stand apart in the source; their conditions may differ.

Common to all, as to format: cell-based, human
Assay [1] relates to H358 cells. The experiment in a line: Ligand-induced EMT in H358 cells with pharmacological inhibitors (Western blot markers, morphology). Particulars: inhibitor and ligand for 7 days; for EMT in OSM-induced models (markers and morphology): OSM alone or in combination. The procedure:
EMD Biosciences #444937), JAK inhibitor 1 (“JAKi”; EMD Biosciences #420099), and LY294002 (PI3K inhibitor (PI3Ki); EMD Biosciences #440202) were used in the concentrations indicated. Cells were treated with inhibitor 30 minutes prior to ligand stimulation. Medium, inhibitor and ligand were refreshed on experimental day 3 to 4. Cell lines were treated as indicated in the text and figure legends. Cell lysates were prepared in RIPA buffer (Sigma, #R0278) containing protease (Sigma #P8340) and phosphatase (Sigma, #P5726) inhibitors. Protein concentration was determined by micro-BCA assay (Pierce, #23227). Protein immunodetection was performed by electrophoretic transfer of SDS-PAGE separated proteins to nitrocellulose, incubation with antibody and chemiluminescent second step detection (PicoWest; Pierce, #34078). The antibodies used were: E-cadherin (sc21791), N-cadherin (#7939), ErbB3 (sc285), GAPDH (#25778) and Zeb1 (#25388), all from Santa Cruz Biotechnology; vimentin (BD550513) and fibronectin (BD610077; both from BD Biosciences); β-actin (Sigma, #A5441).
(In general: In western blotting, separated proteins are transferred to a membrane and probed.)

Assay [2] has as its system H358 cells. The assay can be described thus: TGFβ-induced EMT of H358 cells in 3D matrigel culture, with and without inhibitor. The settings on record: 10 μM SB431542, ligand TGFβ. As to the method: 3-Dimensional matrigel culture: Tissue culture wells were coated with a layer of matrigel of 1 mm depth or greater. H358 cells were plated on top of this in 2% matrigel with seeding density of 2,500-5000 cells/cm^2. Once the cell/matrigel layer had solidified, media was added and cultures were allowed to incubate overnight at 37° C. in a CO2 incubator before treatment of cells with ligand with and without addition of 10 μM SB431542 (Sigma-Aldrich, St. Louis, Mo.; product #S4317). Culture media, ligand with and without addition of 10 μM SB431542 was replenished every 3-4 days during the duration of the experiment.
Cells were plated on coverslips on experimental day 0, stimulated with ligand on day 1 and refreshed with medium and ligand on day 3-4. On day 7, cells were fixed at room temperature for 10 minutes in 4% paraformaldehyde (EMS #15701)/PBS (Gibco #14190). Cells were blocked in 3% BSA/PBS and incubated with primary antibody (E-cadherin, Santa Cruz #sc21791 and Vimentin, Chemicon #AB5733) diluted in blocking buffer for two hours at room temperature. Cells were washed and incubated in secondary antibody (Invitrogen #A11029 and Chemicon #AP194R) followed by nuclear counterstain TO-PRO3 (Invitrogen #T3605). Coverslips were mounted on slides with Pro-Long Gold anti-fade reagent (Invitrogen P36934). […]

Assay [3] deals with H358 cells. The assay can be described thus: Induction of EMT in H358 cells by growth factors and cytokines (immunoblot of EMT biomarkers). The settings on record: for induction of EMT in H358 cells: single ligand, 7 days. The procedure: The human line H358 was cultured in the appropriate ATCC recommended supplemented media. Growth factor and cytokine induced EMT was monitored over a 7-14 day period. Growth factors and cytokines were obtained from commercial sources and included TGFβ 10 ng/ml, Endothelin 100 nM, IL-4 5 ng/ml, IL-6 5 ng/ml, IL-8 5 ng/ml, VEGF 10 ng/ml, Stromal derived factor, 100 ng/ml, Epidermal derived factor 10 ng/ml, MMP2, 100 ng/ml, MMP7, 100 ng/ml, MMP9, 100 ng/ml, Collagen-I, 5 μg/cm2, Collagen-IV, 5 μg/cm2, Fibronectin, 1 μg/cm2, Laminin-I, 1 μg/cm2, Vitronectin, 0.1 μg/cm2, Polylysine, 100 mg/mL, HGF, 100 ng/mL, MSP, 100 ng/ml, IGF-1, 50 ng/mL, CSF-1, 100 ng/mL, ET1, 100 nM, SDF-1alpha, 100 ng/ml PGE2, 500 nM, LPA, 10 μM, S1P, 1 μM, TGFbeta1, 2.5 ng/mL, TNFalpha, 25 ng/mL, IL1beta, 2.5 ng/mL, IL6, 2 ng/mL, IL8, 0.5 ng/mL, WNT-1, 5 ng/mL, CTGF, 20 ng/ml, Trance, 50 ng/ml, FGF1, 10 ng/ml, FGF2, 10 ng/ml, BMP4, 100 ng/ml, BMP7, 100 ng/ml, IGF2, 100 ng/ml, Oncostatin M, 100 ng/ml, NRG1, 50 ng/ml, PDGF-AA, 50 ng/ml, PDGF-BB, 30 ng/ml, WISP1, 20 ng/ml, Fulvestrant, 1 μM, LIF, 20 ng/ml, IFN g, 50 ng/ml, HMG-B1, 50 ng/ml, M-CSF, 50 ng/ml, PTHrP, 50 ng/ml, MCP1, 50 ng/ml, IL-1a, 10 ng/ml, IL-33, 50 ng/ml, IL-31, 50 ng/ml, GM-CSF, 25 ng/ml, Angiopoeitin 2, 400 ng/ml, PAR1, 100 μM, PAR2, 100 μM, PAR4, 100 μM, Wnt5a, 200 ng/ml, G-CSF, 50 ng/ml, Amphiregulin, 100 ng/ml, CNTF, 25 ng/mL, Pleiotrophin, 25 ng/ml, Prolactin, 100 ng/ml, TRAIL, 100 ng/ml.
Cell lines were treated as indicated in the text and figure legends. Cell lysates were prepared in RIPA buffer (Sigma, #R0278) containing protease (Sigma #P8340) and phosphatase (Sigma, #P5726) inhibitors. Protein concentration was determined by micro-BCA assay (Pierce, #23227). Protein immunodetection was performed by electrophoretic transfer of SDS-PAGE separated proteins to nitrocellulose, incubation with antibody and chemiluminescent second step detection (PicoWest; Pierce, #34078). The antibodies used were: E-cadherin (sc21791), N-cadherin (#7939), ErbB3 (sc285), GAPDH (#25778) and Zeb1 (#25388), all from Santa Cruz Biotechnology; vimentin (BD550513) and fibronectin (BD610077; both from BD Biosciences); β-actin (Sigma, #A5441).

Assay [4] deals with H358 cells. The assay can be described thus: Immunofluorescence and confocal imaging of E-cadherin and vimentin in ligand-treated H358 cells. Particulars: cells treated for 7 days. The procedure: Cells were plated on coverslips on experimental day 0, stimulated with ligand on day 1 and refreshed with medium and ligand on day 3-4. On day 7, cells were fixed at room temperature for 10 minutes in 4% paraformaldehyde (EMS #15701)/PBS (Gibco #14190). Cells were blocked in 3% BSA/PBS and incubated with primary antibody (E-cadherin, Santa Cruz #sc21791 and Vimentin, Chemicon #AB5733) diluted in blocking buffer for two hours at room temperature. Cells were washed and incubated in secondary antibody (Invitrogen #A11029 and Chemicon #AP194R) followed by nuclear counterstain TO-PRO3 (Invitrogen #T3605). Coverslips were mounted on slides with Pro-Long Gold anti-fade reagent (Invitrogen P36934). Images were captured on a Leica DMRXE microcope with SP2 scanner using Leica Confocal Software.

As for `CC(C)(C)c1nc2c3cc[nH]c(=O)c3c3cc(F)ccc3c2[nH]1` [JAK inhibitor], the “EMT in OSM-induced models (markers and morphology)” value with H358 cells [1] is reported as “blocked”. Also, the “EMT in OSM-induced models (markers and morphology)” value with H358 cells [1] (listed as JAKi) is “blocks”. In the assay on H358 cells [1] (Western blot), the “downregulation of E-cadherin induced by OSM, TGFβ, HGF+OSM and TGFβ+OSM” value is listed as “blocked”; the “upregulation of vimentin by OSM, HGF+OSM and TGFβ+OSM” value is recorded as “attenuated”.
Take `NC(=O)c1ccc(-c2nc(-c3ccc4c(c3)OCO4)c(-c3ccccn3)[nH]2)cc1` [SB431542]: in the assay with H358 cells [2], the “epithelial to mesenchymal transition induced by TGFβ (vimentin, E-cadherin)” value is reported as “abrogated; also recorded: inhibited”.
For “EGF: epidermal growth factor, protein ligand”, the “induction of EMT in H358 cells” value in the assay on H358 cells [3] is on record as “to a lesser extent”.
Turning to “HGF: hepatocyte growth factor (Peprotech #100-39)”, the “E-cadherin repression or vimentin induction as single agents” value in the assay with H358 cells [3] (seven day treatment of H358) is on record as “neither HGF or OSM as single agents produced significant”. The “extent of EMT at the single cell level (E-cadherin and vimentin expression and localization)” value in the assay on H358 cells [4] is on record as “partial EMT”.
TGFβ: in the assay with H358 cells [3] (seven day treatment of H358), the E-cadherin expression entry is listed as “marked decrease” and the vimentin expression result is recorded as “robust increase”. Moreover, in the assay with H358 cells [3] (seven day treatment of H358, listed as TGF-beta), the E-cadherin expression result was “very substantial”. For the same compound, the “induction of EMT in H358 cells” value in the assay with H358 cells [3] is “most complete EMT”. Also, the “extent of EMT at the single cell level (E-cadherin and vimentin expression and localization)” value with H358 cells [4] is recorded as “more complete EMT”.
For the compound TNFα, in the assay on H358 cells [3], the “induction of EMT in H358 cells” value is “able to induce EMT”.
